The NIST ThermoML archive (doi:10.1007/s10765-005-5567-5)

Experiment: mn = molality of the nth substance listed, in mol/kg
Conditions: Liquid; for thermal conductivity: Coaxial cylinder method; for viscosity: Capillary tube (Ostwald / Ubbelohde) method

O=S(=O)([O-])[O-].[K+].[K+] [potassium sulfate] + O
Conditions	thermal conductivity [W/m/K]	viscosity [mPa·s]
298 K, 100 kPa, m1 = 0.499	0.602	–
298 K, 10000 kPa, m1 = 0.499	0.607	–
298 K, 30000 kPa, m1 = 0.499	0.616	–
298.15 K, 0.1 kPa, m1 = 0.0658	–	0.9039
298.15 K, 0.1 kPa, m1 = 0.2055	–	0.931
298.15 K, 0.1 kPa, m1 = 0.305	–	0.9616
298.15 K, 0.1 kPa, m1 = 0.407	–	0.9825
298.15 K, 10 kPa, m1 = 0.0658	–	0.9023
298.15 K, 10 kPa, m1 = 0.2055	–	0.9297
298.15 K, 10 kPa, m1 = 0.305	–	0.9618
298.15 K, 10 kPa, m1 = 0.407	–	0.9823
298.15 K, 20 kPa, m1 = 0.0658	–	0.904
298.15 K, 20 kPa, m1 = 0.2055	–	0.931
298.15 K, 20 kPa, m1 = 0.305	–	0.9615
298.15 K, 20 kPa, m1 = 0.407	–	0.9826
298.15 K, 30 kPa, m1 = 0.0658	–	0.9053
298.15 K, 30 kPa, m1 = 0.2055	–	0.9319
298.15 K, 30 kPa, m1 = 0.305	–	0.964
298.15 K, 30 kPa, m1 = 0.407	–	0.983
298.4 K, 100 kPa, m1 = 0.239	0.605	–
298.4 K, 10000 kPa, m1 = 0.239	0.61	–
298.4 K, 30000 kPa, m1 = 0.239	0.62	–
311.65 K, 0.1 kPa, m1 = 0.2055	–	0.7107
311.65 K, 10 kPa, m1 = 0.2055	–	0.7122
311.65 K, 20 kPa, m1 = 0.2055	–	0.7133
311.65 K, 30 kPa, m1 = 0.2055	–	0.7151
312.25 K, 0.1 kPa, m1 = 0.407	–	0.7386
312.25 K, 10 kPa, m1 = 0.407	–	0.7414
312.25 K, 20 kPa, m1 = 0.407	–	0.7439
312.25 K, 30 kPa, m1 = 0.407	–	0.7452
312.55 K, 0.1 kPa, m1 = 0.305	–	0.7172
312.55 K, 10 kPa, m1 = 0.305	–	0.7194
312.55 K, 20 kPa, m1 = 0.305	–	0.7207
312.55 K, 30 kPa, m1 = 0.305	–	0.7227
313 K, 100 kPa, m1 = 0.239	0.626	–
313 K, 10000 kPa, m1 = 0.239	0.631	–
313 K, 30000 kPa, m1 = 0.239	0.641	–
313.1 K, 100 kPa, m1 = 0.782	0.618	–
313.1 K, 10000 kPa, m1 = 0.782	0.623	–
313.1 K, 30000 kPa, m1 = 0.782	0.632	–
313.55 K, 0.1 kPa, m1 = 0.0658	–	0.6609
313.55 K, 10 kPa, m1 = 0.0658	–	0.6613
313.55 K, 20 kPa, m1 = 0.0658	–	0.665
313.55 K, 30 kPa, m1 = 0.0658	–	0.667
313.6 K, 100 kPa, m1 = 0.499	0.622	–
313.6 K, 10000 kPa, m1 = 0.499	0.627	–
313.6 K, 30000 kPa, m1 = 0.499	0.637	–
323.15 K, 0.1 kPa, m1 = 0.2055	–	0.5819
323.15 K, 0.1 kPa, m1 = 0.305	–	0.5972
323.15 K, 10 kPa, m1 = 0.2055	–	0.5837
323.15 K, 10 kPa, m1 = 0.305	–	0.5991
323.15 K, 20 kPa, m1 = 0.2055	–	0.5858
323.15 K, 20 kPa, m1 = 0.305	–	0.6019
323.15 K, 30 kPa, m1 = 0.2055	–	0.5885
323.15 K, 30 kPa, m1 = 0.305	–	0.6045
323.25 K, 0.1 kPa, m1 = 0.0658	–	0.5568
323.25 K, 10 kPa, m1 = 0.0658	–	0.5586
323.25 K, 20 kPa, m1 = 0.0658	–	0.5601
323.25 K, 30 kPa, m1 = 0.0658	–	0.5617
323.35 K, 0.1 kPa, m1 = 0.407	–	0.6109
323.35 K, 10 kPa, m1 = 0.407	–	0.613
323.35 K, 20 kPa, m1 = 0.407	–	0.6159
323.35 K, 30 kPa, m1 = 0.407	–	0.618
333.3 K, 100 kPa, m1 = 0.782	0.64	–
333.3 K, 10000 kPa, m1 = 0.782	0.645	–
333.3 K, 30000 kPa, m1 = 0.782	0.655	–
333.6 K, 100 kPa, m1 = 0.239	0.649	–
333.6 K, 10000 kPa, m1 = 0.239	0.654	–
333.6 K, 30000 kPa, m1 = 0.239	0.664	–
333.7 K, 100 kPa, m1 = 0.499	0.645	–
333.7 K, 10000 kPa, m1 = 0.499	0.65	–
333.7 K, 30000 kPa, m1 = 0.499	0.66	–
348.15 K, 0.1 kPa, m1 = 0.407	–	0.4271
348.15 K, 10 kPa, m1 = 0.407	–	0.4316
348.15 K, 20 kPa, m1 = 0.407	–	0.4354
348.15 K, 30 kPa, m1 = 0.407	–	0.438
348.25 K, 0.1 kPa, m1 = 0.305	–	0.4147
348.25 K, 10 kPa, m1 = 0.305	–	0.4182
348.25 K, 20 kPa, m1 = 0.305	–	0.4217
348.25 K, 30 kPa, m1 = 0.305	–	0.4248
348.45 K, 0.1 kPa, m1 = 0.0658	–	0.3842
348.45 K, 10 kPa, m1 = 0.0658	–	0.3869
348.45 K, 20 kPa, m1 = 0.0658	–	0.3912
348.45 K, 30 kPa, m1 = 0.0658	–	0.3963
348.95 K, 0.1 kPa, m1 = 0.2055	–	0.3988
348.95 K, 10 kPa, m1 = 0.2055	–	0.402
348.95 K, 20 kPa, m1 = 0.2055	–	0.4048
348.95 K, 30 kPa, m1 = 0.2055	–	0.4076
352.9 K, 100 kPa, m1 = 0.499	0.66	–
352.9 K, 100 kPa, m1 = 0.782	0.654	–
352.9 K, 10000 kPa, m1 = 0.499	0.665	–
352.9 K, 10000 kPa, m1 = 0.782	0.659	–
352.9 K, 30000 kPa, m1 = 0.499	0.675	–
352.9 K, 30000 kPa, m1 = 0.782	0.67	–
353.3 K, 100 kPa, m1 = 0.239	0.665	–
353.3 K, 10000 kPa, m1 = 0.239	0.67	–
353.3 K, 30000 kPa, m1 = 0.239	0.679	–
363 K, 100 kPa, m1 = 0.499	0.666	–
363 K, 10000 kPa, m1 = 0.499	0.671	–
363 K, 30000 kPa, m1 = 0.499	0.68	–
363.4 K, 100 kPa, m1 = 0.239	0.67	–
363.4 K, 100 kPa, m1 = 0.782	0.66	–
363.4 K, 10000 kPa, m1 = 0.239	0.675	–
363.4 K, 10000 kPa, m1 = 0.782	0.665	–
363.4 K, 30000 kPa, m1 = 0.239	0.685	–
363.4 K, 30000 kPa, m1 = 0.782	0.675	–
365.45 K, 10 kPa, m1 = 0.2055	–	0.3303
365.45 K, 20 kPa, m1 = 0.2055	–	0.3339
365.45 K, 30 kPa, m1 = 0.2055	–	0.3363
365.95 K, 10 kPa, m1 = 0.305	–	0.3396
365.95 K, 20 kPa, m1 = 0.305	–	0.3421
365.95 K, 30 kPa, m1 = 0.305	–	0.346
372.55 K, 10 kPa, m1 = 0.407	–	0.3265
372.55 K, 20 kPa, m1 = 0.407	–	0.33
372.55 K, 30 kPa, m1 = 0.407	–	0.3329
376.65 K, 10 kPa, m1 = 0.0658	–	0.2805
376.65 K, 20 kPa, m1 = 0.0658	–	0.2846
376.65 K, 30 kPa, m1 = 0.0658	–	0.2884
393.1 K, 10000 kPa, m1 = 0.499	0.679	–
393.1 K, 10000 kPa, m1 = 0.782	0.672	–
393.1 K, 30000 kPa, m1 = 0.499	0.69	–
393.1 K, 30000 kPa, m1 = 0.782	0.685	–
393.5 K, 10000 kPa, m1 = 0.239	0.684	–
393.5 K, 30000 kPa, m1 = 0.239	0.695	–
396.35 K, 10 kPa, m1 = 0.407	–	0.2605
396.35 K, 20 kPa, m1 = 0.407	–	0.2628
396.35 K, 30 kPa, m1 = 0.407	–	0.2667
396.65 K, 10 kPa, m1 = 0.2055	–	0.2435
396.65 K, 20 kPa, m1 = 0.2055	–	0.2464
396.65 K, 30 kPa, m1 = 0.2055	–	0.2492
397.25 K, 10 kPa, m1 = 0.305	–	0.2503
